# Reference: patent US20240391931A1 (Bristol-Myers Squibb Company, priority 2021, published 2024)
# Target: HER2YVMA (Homo sapiens, UniProt P04626, INS775YVMA)
# Assay: HER2 signaling (pHER2) in Hek293-HER2YVMA cells
# Type: cell-based
# Parameters: expressed in transfected cells; host or cells: HEK293 (pool), Ba/F3 (clones), BEAS2B (clones); lentiviral vector pCDH-CMV-MCS-EF1-Neo
# Settings: 1.5 hr compound, 1% FBS, read-out: HEKYVMA pHER2 EC50
# Procedure, shortened: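 Lentivirally transduced HER2YVMA lines (HEK293 pool; BEAS2B clone) treated 1.5 h at 37 °C in 1% FBS medium with compound at 0.0005–1.1 μM. Lysates read by MSD immunoassay for pHER2 (Tyr1248) normalized to total HER2, as % DMSO control; EC50 from variable-slope sigmoidal fit.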
# Chain of HER2YVMA (P04626 with tags, fused parts or gaps INS775YVMA): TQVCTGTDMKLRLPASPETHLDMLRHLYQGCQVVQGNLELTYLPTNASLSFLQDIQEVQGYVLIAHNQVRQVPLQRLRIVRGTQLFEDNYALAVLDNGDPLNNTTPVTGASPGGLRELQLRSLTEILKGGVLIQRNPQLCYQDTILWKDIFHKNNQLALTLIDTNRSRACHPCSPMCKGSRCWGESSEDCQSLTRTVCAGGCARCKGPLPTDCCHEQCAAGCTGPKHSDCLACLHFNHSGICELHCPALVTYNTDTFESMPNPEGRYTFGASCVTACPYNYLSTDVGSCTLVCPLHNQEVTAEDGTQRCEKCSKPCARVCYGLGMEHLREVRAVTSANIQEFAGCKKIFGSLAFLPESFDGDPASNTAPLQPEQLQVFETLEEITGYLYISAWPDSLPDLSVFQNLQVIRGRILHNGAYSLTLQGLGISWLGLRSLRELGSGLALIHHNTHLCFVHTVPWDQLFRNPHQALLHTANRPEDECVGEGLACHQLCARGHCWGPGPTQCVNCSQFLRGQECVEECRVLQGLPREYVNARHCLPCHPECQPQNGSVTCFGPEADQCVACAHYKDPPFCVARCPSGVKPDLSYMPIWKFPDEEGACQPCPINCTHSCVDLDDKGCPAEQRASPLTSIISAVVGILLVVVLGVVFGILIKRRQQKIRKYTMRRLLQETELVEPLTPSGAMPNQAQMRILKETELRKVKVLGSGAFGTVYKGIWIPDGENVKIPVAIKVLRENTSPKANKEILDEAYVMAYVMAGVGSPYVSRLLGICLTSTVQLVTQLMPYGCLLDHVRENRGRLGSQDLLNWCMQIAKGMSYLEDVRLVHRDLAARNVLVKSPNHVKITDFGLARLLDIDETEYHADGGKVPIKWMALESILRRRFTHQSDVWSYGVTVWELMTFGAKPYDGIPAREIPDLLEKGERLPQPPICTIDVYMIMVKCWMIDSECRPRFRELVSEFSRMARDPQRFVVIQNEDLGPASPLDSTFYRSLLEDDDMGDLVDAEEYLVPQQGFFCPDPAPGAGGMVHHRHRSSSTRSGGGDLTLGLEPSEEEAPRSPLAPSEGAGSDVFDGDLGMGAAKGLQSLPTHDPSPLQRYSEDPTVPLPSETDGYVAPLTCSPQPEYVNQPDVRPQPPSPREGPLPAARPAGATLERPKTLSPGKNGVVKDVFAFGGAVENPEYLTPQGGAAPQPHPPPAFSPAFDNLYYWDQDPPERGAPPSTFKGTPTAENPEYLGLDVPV
row,Structure (SMILES),EC50
1,Cc1ccc(Oc2ccc(Nc3ncnc4sc5c(c34)CCN(C(=O)/C=C/CN3C[C@H]4CC[C@@H](C3)O4)C5)cc2C)cn1 [Compound 66],< 100 nM
2,Cc1ccc(Oc2ccc(Nc3ncnc4sc5c(c34)CCN(C(=O)/C=C/CN3CCC4(CCOC4)C3)C5)cc2C)cn1 (stereo not shown) [Compound 67],< 100 nM
3,Cc1ccc(Oc2ccc(Nc3ncnc4sc5c(c34)CCN(C(=O)/C=C/CN[C@H]3CC[C@H](OC4CC4)CC3)C5)cc2C)cn1 [Compound 68],< 100 nM
4,Cc1ccc(Oc2ccc(Nc3ncnc4sc5c(c34)CCN(C(=O)/C=C/CN[C@H]3CC[C@H](OC(F)F)CC3)C5)cc2C)cn1 [Compound 69],< 100 nM
5,Cc1ccc(Oc2ccc(Nc3ncnc4sc5c(c34)CCN(C(=O)/C=C/CN[C@H]3CC[C@H](OCC(F)(F)F)CC3)C5)cc2C)cn1 [Compound 70],< 100 nM
6,Cc1ccc(Oc2ccc(Nc3ncnc4sc5c(c34)CCN(C(=O)/C=C/CNC3CCC(C(=O)N(C)C)CC3)C5)cc2C)cn1 (stereo not shown) [Compound 71],< 100 nM
7,Cc1ccc(Oc2ccc(Nc3ncnc4sc5c(c34)CCN(C(=O)/C=C/CNC34CCC(C#N)(CC3)CC4)C5)cc2C)cn1 [Compound 72],< 100 nM
8,Cc1ccc(Oc2ccc(Nc3ncnc4sc5c(c34)CCN(C(=O)/C=C/CN[C@H]3CCC[C@H](O)C3)C5)cc2C)cn1 [Compound 73],< 100 nM
9,Cc1ccc(Oc2ccc(Nc3ncnc4sc5c(c34)CCN(C(=O)/C=C/CN3CCC(O)C3)C5)cc2C)cn1 (stereo not shown) [Compound 74],< 100 nM
10,Cc1ccc(Oc2ccc(Nc3ncnc4sc5c(c34)CCN(C(=O)/C=C/CN[C@@H](C)CO)C5)cc2C)cn1 [Compound 75],< 100 nM
11,Cc1ccc(Oc2ccc(Nc3ncnc4sc5c(c34)CCN(C(=O)/C=C/CN3CC4CC4C3)C5)cc2C)cn1 (stereo not shown) [Compound 76],< 100 nM
12,Cc1cc(Nc2ncnc3sc4c(c23)CCN(C(=O)/C=C/CN2CC3CC2CO3)C4)ccc1Oc1ccc2ncnn2c1 (stereo not shown) [Compound 77],100 to 350 nM
13,Cc1cc(Nc2ncnc3sc4c(c23)CCN(C(=O)/C=C/CN(C)C(C)(C)C)C4)ccc1Oc1ccc2ncnn2c1 [Compound 80],< 100 nM
14,Cc1cc(Nc2ncnc3sc4c(c23)CCN(C(=O)/C=C/CN2CC3C(CO)C3C2)C4)ccc1Oc1ccc2ncnn2c1 (stereo not shown) [Compound 81],< 100 nM
15,Cc1cc(Nc2ncnc3sc4c(c23)CCN(C(=O)/C=C/CN2CC3CC(C3)C2)C4)ccc1Oc1ccc2ncnn2c1 [Compound 82],< 100 nM
16,Cc1cc(Nc2ncnc3sc4c(c23)CCN(C(=O)/C=C/CN2CC(C)OC(C)C2C)C4)ccc1Oc1ccc2ncnn2c1 (stereo not shown) [Compound 83],< 100 nM
17,Cc1cc(Nc2ncnc3sc4c(c23)CCN(C(=O)/C=C/CN2CC(C)(C)OC(C)(C)C2)C4)ccc1Oc1ccc2ncnn2c1 [Compound 84],100 to 350 nM

row,Structure (SMILES),EC50
1,O=C(/C=C/CN1CC2CC(C2)C1)N1CCc2c(sc3ncnc(Nc4ccc(Oc5ccc6ncnn6c5)c(Cl)c4)c23)C1 [Compound 85],< 100 nM
2,"C=C(CN1CCc2c(sc3ncnc(Nc4ccc(Oc5ccc(C)nc5)c(C)c4)c23)C1)C(=O)OCC [Compound 86, Ethyl 2-((4-((3-methyl-4-((6-methylpyridin-3-yl)oxy)phenyl)amino)-5,8-dihydropyrido[4′,3′:4,5]thieno[2,3-d]pyrimidin-7(6H)-yl)methyl)acrylate]",< 100 nM
3,O=C(/C=C/CN1CC2CC1CO2)N1CCc2c(sc3ncnc(Nc4ccc(Oc5ccc6ncnn6c5)c(Cl)c4)c23)C1 (stereo not shown) [Compound 87],< 100 nM
4,O=C(/C=C/CN1CC2CCC(C2)C1)N1CCc2c(sc3ncnc(Nc4ccc(Oc5ccc6ncnn6c5)c(Cl)c4)c23)C1 [Compound 88],< 100 nM
5,CN(C/C=C/C(=O)N1CCc2c(sc3ncnc(Nc4ccc(Oc5ccc6ncnn6c5)c(Cl)c4)c23)C1)C(C)(C)C [Compound 91],< 100 nM
6,O=C(/C=C/CN1CC2C(CO)C2C1)N1CCc2c(sc3ncnc(Nc4ccc(Oc5ccc6ncnn6c5)c(Cl)c4)c23)C1 (stereo not shown) [Compound 92],< 100 nM
7,"C=CC(=O)N1CCc2[nH]c3ncnc(Nc4ccc(Oc5ccc(C)nc5)c(C)c4)c3c2C1 [Compound 94, 1-(4-((3-methyl-4-((6-methylpyridin-3-yl)oxy)phenyl)amino)-7,8-dihydro-5H-pyrido[3′,4′:4,5]pyrrolo[2,3-d]pyrimidin-6(9H)-yl)prop-2-en-1-one]",< 100 nM
8,"COc1ccc(Oc2ccc(Nc3ncnc4sc5c(c34)CCN(C(=O)/C=C/CN(C)C)C5)cc2C)cn1 [Compound 95, (E)-4-(Dimethylamino)-1-(4-((4-((6-methoxypyridin-3-yl)oxy)-3-methylphenyl)amino)-5,6-dihydropyrido[4′,3′:4,5]thieno[2,3-d]pyrimidin-7(8H)-yl)but-2-en-1-one]",< 100 nM
9,"CCOC/C=C/C(=O)N1CCc2c(sc3ncnc(Nc4ccc(Oc5ccc(C)nc5)c(C)c4)c23)C1 [Compound 96, (E)-4-ethoxy-1-(4-((3-methyl-4-((6-methylpyridin-3-yl)oxy)phenyl)amino)-5,8-dihydropyrido[4′,3′:4,5]thieno[2,3-d]pyrimidin-7(6H)-yl)but-2-en-1-one]",< 100 nM
10,"Cc1ccc(Oc2ccc(Nc3ncnc4[nH]c5c(c34)CN(C(=O)/C=C/CN(C)C)CC5)cc2C)cn1 [Compound 97, (E)-4-(dimethylamino)-1-(4-((3-methyl-4-((6-methylpyridin-3-yl)oxy)phenyl)amino)-5,7,8,9-tetrahydro-6H-pyrido[3′,4′:4,5]pyrrolo[2,3-d]pyrimidin-6-yl)but-2-en-1-one]",100 to 350 nM
11,"Cc1ccc(Oc2ccc(Nc3ncnc4sc5c(c34)C(C)CN(C(=O)/C=C/CN(C)C)C5)cc2C)cn1 (stereo not shown) [Compound 98, (E)-4-(dimethylamino)-1-(5-methyl-4-((3-methyl-4-((6-methylpyridin-3-yl)oxy)phenyl)amino)-5,8-dihydropyrido[4′,3′:4,5]thieno[2,3-d]pyrimidin-7(6H)-yl)but-2-en-1-one]",< 100 nM
12,"Cc1ccc(Oc2ccc(Nc3ncnc4sc5c(c34)CN(C(=O)/C=C/CN(C)C)C5)cc2C)cn1 [Compound 99, (E)-4-(dimethylamino)-1-(4-((3-methyl-4-((6-methylpyridin-3-yl)oxy)phenyl)amino)-5,7-dihydro-6H-pyrrolo[3′,4′:4,5]thieno[2,3-d]pyrimidin-6-yl)but-2-en-1-one]",< 100 nM
13,"Cc1ccc(Oc2ccc(Nc3ncnc4sc5c(c34)CCN(C(=O)/C=C/CN(C)C)CC5)cc2C)cn1 [Compound 100, (E)-4-(dimethylamino)-1-(4-((3-methyl-4-((6-methylpyridin-3-yl)oxy)phenyl)amino)-8,9-dihydro-5H-pyrimido[5′,4′:4,5]thieno[2,3-d]azepin-7(6H)-yl)but-2-en-1-one]",< 100 nM
14,"Cc1ccc(Oc2ccc(Nc3ncnc4sc5c(c34)CCCN(C(=O)/C=C/CN(C)C)C5)cc2C)cn1 [Compound 101, (E)-4-(Dimethylamino)-1-(4-((3-methyl-4-((6-methylpyridin-3-yl)oxy)phenyl)amino)-6,7-dihydro-5H-pyrimido[5′,4′:4,5]thieno[2,3-c]azepin-8(9H)-yl)but-2-en-1-one]",< 100 nM
15,"C=CC(=O)N1CCc2[nH]c3ncnc(Nc4ccc(Oc5ccc6ncnn6c5)c(C)c4)c3c2C1 [Compound 102, 1-(4-((4-([1,2,4]triazolo[1,5-a]pyridin-6-yloxy)-3-methylphenyl)amino)-5,7,8,9-tetrahydro-6H-pyrido[3′,4′:4,5]pyrrolo[2,3-d]pyrimidin-6-yl)prop-2-en-1-one]",100 to 350 nM
16,"Cc1cc(Nc2ncnc3sc4c(c23)CN(C(=O)/C=C/CN(C)C)CC4)ccc1Oc1ccc2ncnn2c1 [Compound 103, (E)-1-(4-((4-([1,2,4]triazolo[1,5-a]pyridin-6-yloxy)-3-methylphenyl)amino)-7,8-dihydropyrido[3′,4′:4,5]thieno[2,3-d]pyrimidin-6(5H)-yl)-4-(dimethylamino)but-2-en-1-one]",< 100 nM
17,"Cc1cc(Nc2ncnc3sc4c(c23)CCN(C(=O)/C=C/CN(C)C)C4)ccc1Oc1ccc2nonc2c1 [Compound 104, (E)-1-(4-((4-(Benzo[c][1,2,5]oxadiazol-5-yloxy)-3-methylphenyl)amino)-5,6-dihydropyrido[4′,3′:4,5]thieno[2,3-d]pyrimidin-7(8H)-yl)-4-(dimethylamino)but-2-en-1-one]",< 100 nM
